Data: patent US9326973B2, “Hepatitis C virus inhibitors” (priority 2012, dated 2016)

System: HCV replicon, genotype-1a variant with glutamine 30 changed to glutamate in the NS5A protein
Test: microbe, parasite or virus in culture
Format: cell-based, HCV genotype 1a
Settings: HCV replicon genotype 1a Q30E (Q→E) variant; test compound titrated with an NS5A-targeting compound (BMS-790052 fixed at 200 nM); ranking of synergist activity
Procedure, shortened: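 Synergy was assessed by combining several fixed amounts of an NS5A-targeting compound with a titration of the second compound of interest.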

SMILES: CC(C)(C)[C@H](NC(=O)C1(C2(O)CCC(F)(F)CC2)CC1)c1nc(-c2ccc(-c3ccc(-c4c[nH]c([C@@H](NC(=O)C5(C6(O)CCC(F)(F)CC6)CC5)C(C)(C)C)n4)cc3)cc2)c[nH]1 [Compound P-146]
- Fold-Synergistic 1a (Q30E): >100 fold

SMILES: CC1([C@H](NC(=O)C2(C3(O)CCC(F)(F)CC3)CC2)c2nc(-c3ccc(-c4ccc(-c5c[nH]c([C@@H](NC(=O)C6(C7(O)CCC(F)(F)CC7)CC6)C6(C)CC6)n5)cc4)cc3)c[nH]2)CC1 [Compound P-147]
- Fold-Synergistic 1a (Q30E): >100 fold

SMILES: CC(C)(C)[C@H](NC(=O)C1(C(=O)N2CCC(F)(F)CC2)CC1)c1nc(-c2ccc(-c3ccc(-c4c[nH]c([C@@H](NC(=O)C5(C(=O)N6CCC(F)(F)CC6)CC5)C(C)(C)C)n4)cc3)cc2)c[nH]1 [Compound P-148]
- Fold-Synergistic 1a (Q30E): >100 fold

SMILES: CC(C)(C)[C@H](NC(=O)[C@@]1(C)C[C@H]2CC(F)(F)C[C@H]2C1)c1nc(-c2ccc(-c3ccc(-c4c[nH]c([C@@H](NC(=O)[C@@]5(C)C[C@H]6CC(F)(F)C[C@H]6C5)C(C)(C)C)n4)cc3)cc2)c[nH]1 [Compound P-152]
- Fold-Synergistic 1a (Q30E): >100 fold

SMILES: COC(C)(C(=O)N[C@H](c1nc(-c2ccc(-c3ccc(-c4c[nH]c([C@@H](NC(=O)C(C)(OC)C5(O)CCC(F)(F)CC5)C(C)(C)C)n4)cc3)cc2)c[nH]1)C(C)(C)C)C1(O)CCC(F)(F)CC1 (stereo partly shown) [Compound P-156]
- Fold-Synergistic 1a (Q30E): >100 fold

SMILES: CC(C)(C)[C@H](NC(=O)C(C)(C)[C@]1(O)C[C@H]2CC(F)(F)C[C@H]2C1)c1nc(-c2ccc(-c3ccc(-c4c[nH]c([C@@H](NC(=O)C(C)(C)[C@]5(O)C[C@H]6CC(F)(F)C[C@H]6C5)C(C)(C)C)n4)cc3)cc2)c[nH]1 [Compound P-157]
- Fold-Synergistic 1a (Q30E): >100 fold

SMILES: CC(C)(C)[C@H](NC(=O)C(C)(C)C1(O)CCOCC1)c1nc(-c2ccc(-c3ccc(-c4c[nH]c([C@@H](NC(=O)C(C)(C)C5(O)CCOCC5)C(C)(C)C)n4)cc3)cc2)c[nH]1 [Compound P-158]
- Fold-Synergistic 1a (Q30E): >100 fold

SMILES: CC(C)(C)[C@H](NC(=O)C(F)(F)C1(O)CCCCC1)c1nc(-c2ccc(-c3ccc(-c4c[nH]c([C@@H](NC(=O)C(F)(F)C5(O)CCCCC5)C(C)(C)C)n4)cc3)cc2)c[nH]1 [Compound P-159]
- Fold-Synergistic 1a (Q30E): >100 fold

SMILES: CC(C)(C)[C@H](NC(=O)C(C)(C)C1(O)CCCCC1)c1nc(-c2ccc(-c3ccc(-c4c[nH]c([C@@H](NC(=O)C(C)(C)C5(O)CCCCC5)C(C)(C)C)n4)cc3)cc2)c[nH]1 [Compound P-160]
- Fold-Synergistic 1a (Q30E): >100 fold

SMILES: CC(C)(C)[C@H](NC(=O)C1(CF)CCCO1)c1nc(-c2ccc(-c3ccc(-c4c[nH]c([C@@H](NC(=O)C5(CF)CCCO5)C(C)(C)C)n4)cc3)cc2)c[nH]1 (stereo partly shown) [Compound P-161]
- Fold-Synergistic 1a (Q30E): >100 fold

SMILES: CC(C)(C)[C@H](NC(=O)C1(C)OCCCC1(F)F)c1nc(-c2ccc(-c3ccc(-c4c[nH]c([C@@H](NC(=O)C5(C)OCCCC5(F)F)C(C)(C)C)n4)cc3)cc2)c[nH]1 (stereo partly shown) [Compound P-162]
- Fold-Synergistic 1a (Q30E): >100 fold

SMILES: CC(C)(C)[C@H](NC(=O)C(F)(F)C1(O)CCOCC1)c1nc(-c2ccc(-c3ccc(-c4c[nH]c([C@@H](NC(=O)C(F)(F)C5(O)CCOCC5)C(C)(C)C)n4)cc3)cc2)c[nH]1 [Compound P-163]
- Fold-Synergistic 1a (Q30E): >100 fold

SMILES: CC(C)(C)[C@H](NC(=O)C(F)(F)C1(O)CCCC1)c1nc(-c2ccc(-c3ccc(-c4c[nH]c([C@@H](NC(=O)C(F)(F)C5(O)CCCC5)C(C)(C)C)n4)cc3)cc2)c[nH]1 [Compound P-164]
- Fold-Synergistic 1a (Q30E): >100 fold

SMILES: CC(C)(C)[C@H](NC(=O)C(F)(F)C1(O)CCC1)c1nc(-c2ccc(-c3ccc(-c4c[nH]c([C@@H](NC(=O)C(F)(F)C5(O)CCC5)C(C)(C)C)n4)cc3)cc2)c[nH]1 [Compound P-165]
- Fold-Synergistic 1a (Q30E): >100 fold

SMILES: CC(C)(C)[C@H](NC(=O)C(F)(F)C1CCCCO1)c1nc(-c2ccc(-c3ccc(-c4c[nH]c([C@@H](NC(=O)C(F)(F)C5CCCCO5)C(C)(C)C)n4)cc3)cc2)c[nH]1 (stereo partly shown) [Compound P-166]
- Fold-Synergistic 1a (Q30E): >100 fold

SMILES: COC1(C(F)(F)C(=O)N[C@H](c2nc(-c3ccc(-c4ccc(-c5c[nH]c([C@@H](NC(=O)C(F)(F)C6(OC)CCCCC6)C(C)(C)C)n5)cc4)cc3)c[nH]2)C(C)(C)C)CCCCC1 [Compound P-167]
- Fold-Synergistic 1a (Q30E): >100 fold

SMILES: CC(C)(C)[C@H](NC(=O)C(F)(F)C(O)c1ccccc1)c1nc(-c2ccc(-c3ccc(-c4c[nH]c([C@@H](NC(=O)C(F)(F)C(O)c5ccccc5)C(C)(C)C)n4)cc3)cc2)c[nH]1 (stereo partly shown) [Compound P-168]
- Fold-Synergistic 1a (Q30E): >100 fold

SMILES: CC(C)(C)[C@H](NC(=O)C(O)(C1CC1)C1CC1)c1nc(-c2ccc(-c3ccc(-c4c[nH]c([C@@H](NC(=O)C(O)(C5CC5)C5CC5)C(C)(C)C)n4)cc3)cc2)c[nH]1 [Compound P-169]
- Fold-Synergistic 1a (Q30E): >100 fold

SMILES: CC(C)(C)[C@H](NC(=O)[C@@]12CC[C@@](C)(C(=O)O1)C2(C)C)c1nc(-c2ccc(-c3ccc(-c4c[nH]c([C@@H](NC(=O)[C@@]56CC[C@@](C)(C(=O)O5)C6(C)C)C(C)(C)C)n4)cc3)cc2)c[nH]1 [Compound P-170]
- Fold-Synergistic 1a (Q30E): >100 fold

SMILES: CC(C)(C)[C@H](NC(=O)[C@@H]1CCC[C@@H]1O)c1nc(-c2ccc(-c3ccc(-c4c[nH]c([C@@H](NC(=O)[C@@H]5CCC[C@@H]5O)C(C)(C)C)n4)cc3)cc2)c[nH]1 [Compound P-171]
- Fold-Synergistic 1a (Q30E): >100 fold

SMILES: CC(C)(C)[C@H](NC(=O)C(F)(F)Sc1ccccc1)c1nc(-c2ccc(-c3ccc(-c4c[nH]c([C@@H](NC(=O)C(F)(F)Sc5ccccc5)C(C)(C)C)n4)cc3)cc2)c[nH]1 [Compound P-172]
- Fold-Synergistic 1a (Q30E): >100 fold

SMILES: CC(C)(C)[C@H](NC(=O)C1CCCCS1)c1nc(-c2ccc(-c3ccc(-c4c[nH]c([C@@H](NC(=O)C5CCCCS5)C(C)(C)C)n4)cc3)cc2)c[nH]1 (stereo partly shown) [Compound P-173]
- Fold-Synergistic 1a (Q30E): >100 fold

SMILES: CC(C)(NC1CCCCC1)C(=O)N[C@H](c1nc(-c2ccc(-c3ccc(-c4c[nH]c([C@@H](NC(=O)C(C)(C)NC5CCCCC5)C(C)(C)C)n4)cc3)cc2)c[nH]1)C(C)(C)C [Compound P-174]
- Fold-Synergistic 1a (Q30E): >100 fold

SMILES: CC(C)(C)NC(C)(C)C(=O)N[C@H](c1nc(-c2ccc(-c3ccc(-c4c[nH]c([C@@H](NC(=O)C(C)(C)NC(C)(C)C)C(C)(C)C)n4)cc3)cc2)c[nH]1)C(C)(C)C [Compound P-175]
- Fold-Synergistic 1a (Q30E): >100 fold

SMILES: CC(C)(C)[C@H](NC(=O)[C@@]1(C)CCCCO1)c1nc(-c2ccc(-c3ccc(-c4c[nH]c([C@@H](NC(=O)[C@@]5(C)CCCCO5)C(C)(C)C)n4)cc3)cc2)c[nH]1 [Compound P-176]
- Fold-Synergistic 1a (Q30E): >100 fold

SMILES: CC(C)(C)[C@H](NC(=O)C1(CO)CCCCO1)c1nc(-c2ccc(-c3ccc(-c4c[nH]c([C@@H](NC(=O)C5(CO)CCCCO5)C(C)(C)C)n4)cc3)cc2)c[nH]1 (stereo partly shown) [Compound P-177]
- Fold-Synergistic 1a (Q30E): >100 fold

SMILES: CC(C)(C)[C@H](NC(=O)C1(CF)CCCCO1)c1nc(-c2ccc(-c3ccc(-c4c[nH]c([C@@H](NC(=O)C5(CF)CCCCO5)C(C)(C)C)n4)cc3)cc2)c[nH]1 (stereo partly shown) [Compound P-178]
- Fold-Synergistic 1a (Q30E): >100 fold

SMILES: CC(C)(C)[C@H](NC(=O)C1(C(F)F)CCCCO1)c1nc(-c2ccc(-c3ccc(-c4c[nH]c([C@@H](NC(=O)C5(C(F)F)CCCCO5)C(C)(C)C)n4)cc3)cc2)c[nH]1 (stereo partly shown) [Compound P-179]
- Fold-Synergistic 1a (Q30E): >100 fold

SMILES: CC(C)(C)[C@H](NC(=O)C1(CO)CCCCO1)c1nc(-c2ccc(-c3ccc(-c4c[nH]c([C@@H](NC(=O)C5(CO)CCCCO5)C(C)(C)C)n4)cc3)cc2)c[nH]1 (stereo partly shown) [Compound P-180]
- Fold-Synergistic 1a (Q30E): >100 fold

SMILES: CC(C)(C)[C@H](NC(=O)C1(CO)CCCCO1)c1nc(-c2ccc(-c3ccc(-c4c[nH]c([C@@H](NC(=O)C5(CO)CCCCO5)C(C)(C)C)n4)cc3)cc2)c[nH]1 (stereo partly shown) [Compound P-181]
- Fold-Synergistic 1a (Q30E): >100 fold

SMILES: CC(C)(C)[C@H](NC(=O)C1(CO)CCCCO1)c1nc(-c2ccc(-c3ccc(-c4c[nH]c([C@@H](NC(=O)C5(CO)CCCCO5)C(C)(C)C)n4)cc3)cc2)c[nH]1 (stereo partly shown) [Compound P-182]
- Fold-Synergistic 1a (Q30E): >100 fold

SMILES: COCC1(C(=O)N[C@H](c2nc(-c3ccc(-c4ccc(-c5c[nH]c([C@@H](NC(=O)C6(COC)CCCCO6)C(C)(C)C)n5)cc4)cc3)c[nH]2)C(C)(C)C)CCCCO1 (stereo partly shown) [Compound P-183]
- Fold-Synergistic 1a (Q30E): >100 fold

SMILES: CC(C)[C@H](NC(=O)[C@@]1(C)CCCCO1)c1nc(-c2ccc(-c3ccc(-c4c[nH]c([C@@H](NC(=O)[C@@]5(C)CCCCO5)C(C)C)n4)cc3)cc2)c[nH]1 [Compound P-184]
- Fold-Synergistic 1a (Q30E): >100 fold

SMILES: O=C(N1CCC[C@H]1c1ncc(-c2ccc(-c3ccc(-c4cnc([C@@H]5CCCN5C(=O)C5(O)CCC(F)(F)CC5)[nH]4)cc3)cc2)[nH]1)C1(O)CCC(F)(F)CC1 [Compound P-185]
- Fold-Synergistic 1a (Q30E): >100 fold

SMILES: C[C@]1(C(=O)N2CCC[C@H]2c2ncc(-c3ccc(-c4ccc(-c5cnc([C@@H]6CCCN6C(=O)[C@@]6(C)CCC(F)(F)CO6)[nH]5)cc4)cc3)[nH]2)CCC(F)(F)CO1 [Compound P-186]
- Fold-Synergistic 1a (Q30E): <10 fold

SMILES: CC1([C@H](NC(=O)[C@@]2(C)CCCCO2)c2nc(-c3ccc(-c4ccc(-c5c[nH]c([C@@H](NC(=O)[C@@]6(C)CCCCO6)C6(C)CC6)n5)cc4)cc3)c[nH]2)CC1 [Compound P-187]
- Fold-Synergistic 1a (Q30E): >100 fold

SMILES: O=C(c1ccccc1)N1CCC[C@H]1c1ncc(-c2ccc(-c3ccc(-c4cnc([C@@H]5CCCN5C(=O)c5ccccc5)[nH]4)cc3)cc2)[nH]1 [Compound S-106]
- Fold-Synergistic 1a (Q30E): <10 fold
